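Exposure lasted 48 hours, with cells grown in 96-well plates and compounds tested at five concentrations. The concentration for 50% growth inhibition is given as GI50. The concentration for full growth arrest is given as TGI.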
What was measured:
Assay in all cases: NCI anticancer screen, dose series, 48 h
HCT-15 colon = test system: HCT-15 colon
HOP-62 NSCLC = test system: HOP-62 NSCLC
KM12 colon = test system: KM12 colon
OVCAR-4 ovarian = test system: OVCAR-4 ovarian
SK-MEL-2 melanoma = test system: SK-MEL-2 melanoma
SN12C renal = test system: SN12C renal
SNB-19 CNS = test system: SNB-19 CNS
SNB-75 CNS = test system: SNB-75 CNS
SW-620 colon = test system: SW-620 colon
T-47D breast = test system: T-47D breast

SMILES | GI50 (HCT-15 colon) [µM] | TGI (HCT-15 colon) [µM] | GI50 (HOP-62 NSCLC) [µM] | TGI (HOP-62 NSCLC) [µM] | GI50 (KM12 colon) [µM] | TGI (KM12 colon) [µM] | GI50 (OVCAR-4 ovarian) [µM] | TGI (OVCAR-4 ovarian) [µM] | GI50 (SK-MEL-2 melanoma) [µM] | TGI (SK-MEL-2 melanoma) [µM] | GI50 (SN12C renal) [µM] | TGI (SN12C renal) [µM] | GI50 (SNB-19 CNS) [µM] | TGI (SNB-19 CNS) [µM] | GI50 (SNB-75 CNS) [µM] | TGI (SNB-75 CNS) [µM] | GI50 (SW-620 colon) [µM] | TGI (SW-620 colon) [µM] | GI50 (T-47D breast) [µM] | TGI (T-47D breast) [µM]
COc1ccc(/C=C/C(=O)c2cc3c(N)c(C(=O)Nc4ccccc4Cl)sc3nc2C)cc1 | 2.96 | > 50 | 1.62 | 8.02 | 3.48 | > 50 | 1.7 | 46 | 1.31 | 16.7 | 3.78 | > 50 | 3.8 | 23.1 | 1.12 | 4.32 | 3.39 | > 50 | 2.95 | > 50
O=C(/C=C/c1ccc(OCC(=O)N2CCN(c3ccccc3)CC2)cc1)c1ccc(Cl)cc1 |  | > 100 |  | 55.3 |  | > 100 |  | > 97.7 |  | 98.3 |  | > 100 |  | 50.7 |  | 39.2 |  | > 100 |  | > 100
CCOP(=O)(OCC)C(NC(c1ccccc1)c1ccccc1)c1ccccc1 (centres undefined) | 13.7 | 27.6 | 16.6 | 30.3 | 18.4 | 34.6 | 51.8 | > 100 | 22.3 | 52.2 | 16.8 | 32.6 | 48.1 | > 100 | 21.7 | 45.3 | 15 | 31.7 | 42.6 | 99
CC1=C([Se]CC(OC(=O)CC[Se]c2ccccc2)C(=O)NCCCCCC(=O)OCc2ccccc2)C(=O)c2ccccc2C1=O (centres undefined) | 3.85 | 21.6 | 1.87 | 4.32 | 2.27 | 5.45 | 2.28 | 6.56 | 3.32 | 9.96 | 3.25 | 14.3 | 2.72 | 11 | 1.71 | 6.23 | 3.28 | 11.6 | 2.2 | 8.21
CCCC[C@H]1C(=O)O[C@H](C)[C@H](NC(=O)c2cccc(NC=O)c2O)C(=O)O[C@@H](C)[C@@H]1OC(=O)CC(C)C |  | 22 |  | 33.2 |  | 30.8 |  | 63.4 |  | 22.2 |  | 40.7 |  | 63.1 |  | 59.9 |  | 68.3 |  | 44.8
N[C@@H](Cc1c[nH]c2ccccc12)C(=O)NC1CCN(C(=O)c2c[nH]c3ccccc23)CC1 | > 100 | > 100 | > 100 | > 100 | 84.8 | > 100 | 69.2 | > 100 | > 100 | > 100 | > 100 | > 100 | 99.8 | > 100 | 37.4 | > 100 | > 100 | > 100 | 74.5 | > 100
C(=N\Nc1ccccn1)/c1ccccn1 | 0.368 | > 100 | 0.38 | > 100 | 0.47 | > 100 | 0.26 |  | > 100 | > 100 | 0.443 | > 100 | 0.547 | > 100 | 0.665 | > 93.4 | 0.557 | > 100 | 0.332 | > 100
CN(C)CCCn1c2c(c3cnccc3c1=O)C(=O)c1ccccc1-2 | 0.318 | 10.2 | 0.402 | 7.75 | 0.488 | 9.58 | 0.601 | 8.89 | 0.829 | 3.6 | 0.289 | 4.35 | 0.362 | 3.96 | 0.82 | 4.03 | 0.209 | 10.9 | 0.509 | 6.99
Oc1ccc(/C=N\Nc2ccccn2)c(O)c1 | 0.533 | > 100 | 2.14 | 9.55 | 1.51 | 20.4 | 2.87 | > 100 | 9.43 | > 100 | 2.48 | > 100 | 2.97 | > 100 | 1.46 | 6.62 | 1.52 | > 100 | 2.41 | > 100
N#CC(=S)Nc1cccc(Cl)c1 |  | > 100 |  | > 100 |  | > 100 |  | > 100 |  | > 100 |  | > 100 |  | > 100 |  | 75.9 |  | > 100 |  | > 100
Cc1ccc(C(CN(C)C)C(=O)c2ccccc2)cc1 (centres undefined) | 1.7 | 4.21 | 12.2 | 27.5 | 4 | 14.7 | 2.76 | 13 | 4.45 | 15.8 | 3.59 | 11.5 | 10.4 | 24.3 | 2.58 | 14.8 | 0.894 | 2.71 | 2.35 | 12.7
CC1=C(/C=C/C(C)=C\C=C\C(C)=C\C(=O)Nc2ccc3c(c2)OCO3)C(C)(C)CCC1 | 36.4 | > 100 | > 100 | > 100 | 39.2 | > 100 | 21 | > 100 | 61.6 | > 100 | > 100 | > 100 | > 100 | > 100 | 7.41 | > 100 | > 100 | > 100 | 25.4 | > 100
C=C1[C@@H](C)[C@H]2[C@H](Cc3ccccc3)NC(=O)[C@]23OC(=O)/C=C/[C@H](O)CCC[C@@H](C)C/C=C/[C@H]3[C@@H]1O |  | 93.2 |  | 15 |  | > 100 |  | > 100 |  | 89.1 |  | > 100 |  | 64.1 |  | 1.3 |  | > 100 |  | > 100

From PubChem BioAssay (NCI)
